# From US10150793B2, “Antagonists of CB1 receptor” (INSERM (Institut National de la Santé et de la Recherche …, priority 2011, dated 2018)
# Experiments:
# CHO cells = assay: Study of metabolism in vitro in CHO cells, steroids in culture medium by GC/MS; conditions: CHO cells
# Experimental: Plasma, brain and culture medium levels of pregnenolone (5-Pregnen-3β-ol-20-one), allopregnanolone (3α-hydroxy-5α-pregnan-20-one), epiallopregnanolone (3β-hydroxy-5α-pregnan-ol-20-one), testosterone, and 5α dihydrotestosterone were determined by GC/MS according to the of estraction, purification and quantification protocol described previously (George O, et al., Biol Psychiatry. 2010 68: 956-63, Vallee M, et al., Anal Biochem. 2000, 287:153-66).
# The CHO-K1 cell line (#CCL-61, ATCC-LGC, USA) derived as a subclone from the parental CHO cell line initiated from a biopsy of an adult Chinese hamster ovary was used. The CHO-K1 cells were seeded on 24-well plates (#353047, BD Biosciences, USA) to the appropriate concentration (25×10^4 cells/well) in fresh, antibiotic-free medium constituted by 90% DMEM-Glutamax; (#31966-21, Life technologies, USA) and 10% Fetal Bovine Serum (#10270-106, Life technologies, USA).
# In this example the inventors further analyzed the metabolism of pregnenolone derivatives using an in vitro test in CHO cells. These cells derived from the ovary have all the enzymes needed to metabolize pregnenolone in down stream steroids.
# TNF-α = assay: Increase in plasma TNF-alpha induced by LPS; format: in vivo, mice; conditions: Mus musculus; mice; compounds 6 mg/kg 15 min before LPS
# Experimental: Trunk blood was collected and centrifuged at 3000 rpm for 15 min at 4° C. Plasma was stored at −80° C. until measurement of TNFα was carried out. Plasma TNFα levels were assessed using an ELISA kit, following the manufacturer's instructions (Fisher Scientific, Catalog #E6473C).
# In this example the inventors further analyzed the ability of pregnenolone to inhibit the effects of CB1 activation in the context of inflammation and fibrosis. […] TNF-alpha is one of the cellular responses to inflammatory stimuli more involved in promoting fibrosis.
# (§1) Other pregnenolone derivatives (Table 4) for which the metabolism in downstream active steroids was reduced were tested for their ability to inhibit: 1. effects of the THC-induced cannabinoid tetrade (decrease in body temperature and in locomotor activity, (THC 10 mg/kg, compounds 6 mg/kg 15-30 min before THC) that is recognized as a sound method to evaluate the activation of the CB1 receptor; 2. THC-induced increase in food intake a typical effect of CB1 activation (THC between 0.5 and 1 mg/kg, compounds between 2 and 4 mg/kg 30 min before THC); 3. the increase in TNFalpha induced by LPS, another effects typical of CB1 […] (compounds 6 mg/kg 15 min before LPS). For each compound and each test independent groups of animals were used (at least n=6 per compound/per test).
# CB1 receptor [1] = biological target: T1, CB1 receptor (Mus musculus, UniProt P47746); assay: THC-induced cannabinoid tetrad (body temperature, locomotor activity, catalepsy, analgesia); format: in vivo, mice; set-up: tissue Charles River Laboratories (France) (animals); host or cells: living mice, whole animal; conditions: mice; THC 10 mg/kg; compounds 6 mg/kg 15-30 min before THC
# CB1 receptor [2] = biological target: T1, CB1 receptor; assay: THC-induced increase in food intake in mice; format: in vivo; set-up: tissue Charles River Laboratories (France) (animals); host or cells: living mice, whole animal; conditions: mice; THC between 0.5 and 1 mg/kg; compounds between 2 and 4 mg/kg 30 min before THC
# Experimental: Food intake was evaluated by measuring consumption of food in the home cages of the animals. For each animal, 50-100 g of standard laboratory chow (U.A.R., France) was placed in the cleaned home cage. The remaining amount of food was weighted 1 h later and the amount of food consumed calculated.
# as §1
# GABA-A receptors = assay: GABA-A receptors-mediated mIPSC in nucleus accumbens principal neurons; format: cell-based, mouse
# Experimental: GABA-A receptors-mediated currents: mIPSC were recorded in the presence of the AMPAR and NMDAR antagonists (DNQX 20 μM and AP-5 50 μM, respectably). mEPSC-mIPSC analysis: Typically, after breaking in, cells were left to equilibrate for 20 minutes and the subsequent 10 minutes recording of mEPSC-mIPSC was used to analysis. mEPSC-mIPSC were detected using a template generated from averaging several typical events (Clampfit 10, Molecular Devices). The template was slid along the data trace one point at a time. At each position, the template was optimally scaled and offset to fit the data. A lower-amplitude threshold of 7 pA and 10 pA were applied for mEPSC and mIPSC, respectably, equivalent to 2.5SD of baseline noise. For each cell, the kinetics of mEPSC-mIPSC was measured from the average event using Clampfit 10. To estimate decay times, a two exponentials curve was fitted between 5 and 95% of the decay phase of the current given by the following equation: y(t)=A1·e^(−t/τ1)+A2·e^(−t/τ2), where A is the amplitude, t is the time and τ is the decay time constant. The weighted tau was then calculated.
# In order to evaluate the effect of pregnenolone on the function of post-synaptic GABA we recorded mIPSC and compared its amplitude and decay time between groups. We observed that mIPSC amplitude and decay time were similar between controls (amplitude: 17.9±0.8 pA; decay time: 11.1±0.3 ms) and slices pre-treated with pregnenolone (100 nM and 1 μM, respectively; amplitude: 17.3±0.4 pA, 15.9±0.4 pA; decay time: 10.2±0.4 ms, 10.8±0.5 ms).
# T1 sequence (P47746 whole entry): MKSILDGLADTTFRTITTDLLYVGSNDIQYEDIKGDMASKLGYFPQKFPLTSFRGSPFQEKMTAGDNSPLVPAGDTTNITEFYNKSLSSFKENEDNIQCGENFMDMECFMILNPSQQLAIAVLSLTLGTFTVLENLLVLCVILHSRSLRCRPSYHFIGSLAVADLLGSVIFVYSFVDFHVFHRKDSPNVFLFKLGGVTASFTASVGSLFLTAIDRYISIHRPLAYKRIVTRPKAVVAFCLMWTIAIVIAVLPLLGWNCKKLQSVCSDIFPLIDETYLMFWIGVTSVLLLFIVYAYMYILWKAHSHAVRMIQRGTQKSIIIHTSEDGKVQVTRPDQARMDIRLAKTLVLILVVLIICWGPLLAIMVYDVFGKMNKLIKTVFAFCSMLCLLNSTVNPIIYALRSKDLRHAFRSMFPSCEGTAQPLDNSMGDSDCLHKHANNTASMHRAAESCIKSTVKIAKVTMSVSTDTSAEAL
smiles,measurement,setting,value
"C[C@@H](O)[C@H]1CCC2C3CCC4=C[C@@H](O)CC[C@]4(C)C3CC[C@@]21C (stereo in doubt) [Compound 12, 4-Pregnen-3β,20α-diol]",metabolism in downstream active steroids (Reduced metabolism / Metabolized),CHO cells,Reduced metabolism
same,inhibition in vivo at 6 mg/kg,TNF-α,81%
same,% Inhibition temperature decrease,CB1 receptor [1],"42%, P < 0.004"
same,% increase in motor activity,CB1 receptor [1],"100%, P < 0.16"
same,% Inhibition of THC-Induced food intake,CB1 receptor [2],"≥100%, P < 0.001"
"C[C@H](O)[C@@]1(O)CCC2C3CCC4=CC(=O)CC[C@]4(C)C3CC[C@@]21C (stereo in doubt) [Compound 14, 4-Pregnen-17α,20α-diol-3-one]",metabolism in downstream active steroids (Reduced metabolism / Metabolized),CHO cells,Reduced metabolism
same,inhibition in vivo at 6 mg/kg,TNF-α,65%
same,% Inhibition temperature decrease,CB1 receptor [1],"45%, P < 0.001"
same,% increase in motor activity,CB1 receptor [1],"277%, P < 0.004"
same,% Inhibition of THC-Induced food intake,CB1 receptor [2],"70%, P < 0.06"
"C[C@@H](O)[C@H]1CCC2C3CCC4=CC(=O)CC[C@]4(C)C3CC[C@@]21C (stereo in doubt) [Compound 18, 4-Pregnen-20α-ol-3-one]",metabolism in downstream active steroids (Reduced metabolism / Metabolized),CHO cells,Reduced metabolism
same,inhibition in vivo at 6 mg/kg,TNF-α,65%
same,% Inhibition temperature decrease,CB1 receptor [1],"25%, P < 0.04"
same,% increase in motor activity,CB1 receptor [1],"146%, P < 0.1"
same,% Inhibition of THC-Induced food intake,CB1 receptor [2],"30%, P > 0.25"
"C[C@H](O)[C@H]1CCC2C3CC=C4C[C@@H](O)CC[C@]4(C)C3CC[C@@]21C (stereo partly drawn) [Compound 20, 5-Pregnen-3β,20α-diol]",metabolism in downstream active steroids (Reduced metabolism / Metabolized),CHO cells,Reduced metabolism
same,inhibition in vivo at 6 mg/kg,TNF-α,65%
same,% Inhibition temperature decrease,CB1 receptor [1],"34%, P < 0.04"
same,% increase in motor activity,CB1 receptor [1],"123%, P < 0.04"
same,% Inhibition of THC-Induced food intake,CB1 receptor [2],"85%, P < 0.03"
"CC[C@]1(C(C)=O)CCC2C3CC=C4C[C@@H](O)CC[C@]4(C)C3CC[C@@]21C (stereo partly drawn) [Compound 32, 17α-Ethylpregnenolone]",metabolism in downstream active steroids (Reduced metabolism / Metabolized),CHO cells,Reduced metabolism
same,inhibition in vivo at 6 mg/kg,TNF-α,64%
same,% Inhibition temperature decrease,CB1 receptor [1],"12%, P > 0.25"
same,% increase in motor activity,CB1 receptor [1],"−2%, P > 0.25"
"CO[C@H]1CC[C@@]2(C)C(=CCC3C2CC[C@@]2(C)C3CC[C@]2(C)C(C)=O)C1 (stereo partly drawn) [Compound 35, 3β-Methoxy-17α-methylpregnenolone]",metabolism in downstream active steroids (Reduced metabolism / Metabolized),CHO cells,Reduced metabolism
same,inhibition in vivo at 6 mg/kg,TNF-α,57%
same,% Inhibition temperature decrease,CB1 receptor [1],"33%, P < 0.01"
same,% increase in motor activity,CB1 receptor [1],"−32%, P > 0.24"
"COC1(C(C)=O)CCC2C3CC=C4C[C@@H](O)CC[C@]4(C)C3CC[C@@]21C (some centres unmarked) [Compound 36, 17-Methoxypregnenolone]",metabolism in downstream active steroids (Reduced metabolism / Metabolized),CHO cells,Reduced metabolism
same,inhibition in vivo at 6 mg/kg,TNF-α,37%
same,% Inhibition temperature decrease,CB1 receptor [1],"54%, P < 0.001"
same,% increase in motor activity,CB1 receptor [1],"326%, P < 0.001"
same,% Inhibition of THC-Induced food intake,CB1 receptor [2],"≥100%, P < 0.003"
"CC(=O)C1=CC[C@H]2[C@@H]3CC=C4CCCC[C@]4(C)[C@H]3CC[C@]12C [Compound 39, 5,16-Pregnadien-20-one]",metabolism in downstream active steroids (Reduced metabolism / Metabolized),CHO cells,Reduced metabolism
same,inhibition in vivo at 6 mg/kg,TNF-α,46%
same,% Inhibition temperature decrease,CB1 receptor [1],"56%, P < 0.001"
same,% increase in motor activity,CB1 receptor [1],"309%, P < 0.001"
same,% Inhibition of THC-Induced food intake,CB1 receptor [2],"≥100%, P < 0.02"
"CC(=O)[C@@]1(C)CCC2C3CCC4=CC(=O)CC[C@]4(C)C3CC[C@@]21C (stereo partly drawn) [Compound 40, 17α-Methylprogesterone]",metabolism in downstream active steroids (Reduced metabolism / Metabolized),CHO cells,Reduced metabolism
same,inhibition in vivo at 6 mg/kg,TNF-α,57%
same,% Inhibition temperature decrease,CB1 receptor [1],"18%, P < 0.02"
same,% increase in motor activity,CB1 receptor [1],"57%, P < 0.21"
same,% Inhibition of THC-Induced food intake,CB1 receptor [2],"74%, P < 0.07"
"CC(=O)[C@H]1CCC2C3CC=C4C[C@@H](OCc5ccccc5)CC[C@]4(C)C3CC[C@@]21C (stereo partly drawn) [Compound 41, 3β-Benzyloxypregnenolone]",metabolism in downstream active steroids (Reduced metabolism / Metabolized),CHO cells,Reduced metabolism
same,inhibition in vivo at 6 mg/kg,TNF-α,62%
same,% Inhibition temperature decrease,CB1 receptor [1],"38%, P < 0.001"
same,% increase in motor activity,CB1 receptor [1],"106%, P < 0.03"
"CC(=O)[C@H]1CCC2C3CC[C@@H]4C[C@@H](O)CC[C@]4(C)C3CC[C@@]21C (stereo partly drawn) [Compound 46, 5α-Pregnan-3α-ol-20-one (Allopregnanolone), reference compound]",metabolism in downstream active steroids (Reduced metabolism / Metabolized),CHO cells,Metabolized
same,mIPSC amplitude,GABA-A receptors; slices pre-treated with 100 nM,15.9±0.5 pA
same,mIPSC decay time,GABA-A receptors; slices pre-treated with 100 nM,13.6 ± 0.7 ms
same,mIPSC amplitude,GABA-A receptors; slices pre-treated with 1 μM,20.2±1.2 pA
same,mIPSC decay time,GABA-A receptors; slices pre-treated with 1 μM,22.7 ± 2.3 ms
"CC(=O)[C@H]1CC[C@H]2[C@@H]3CC[C@@H]4CC(=O)CC[C@]4(C)[C@H]3CC[C@]12C [Compound 60, 5β-Pregnan-3,20-dione]",inhibition in vivo at 6 mg/kg,TNF-α,77%
same,% Inhibition temperature decrease,CB1 receptor [1],"66%, P < 0.0001"
same,% increase in motor activity,CB1 receptor [1],"70%, P < 0.05"
same,% Inhibition of THC-Induced food intake,CB1 receptor [2],"≥100%, P < 0.002"
"CC(=O)[C@@]1(Cc2ccccc2)CCC2C3CC=C4C[C@@H](O)CC[C@]4(C)C3CC[C@@]21C (stereo partly drawn) [Compound 65, 17α-Benzylpregnenolone]",metabolism in downstream active steroids (Reduced metabolism / Metabolized),CHO cells,Reduced metabolism
same,inhibition in vivo at 6 mg/kg,TNF-α,65%
same,% Inhibition temperature decrease,CB1 receptor [1],"53%, P < 0.003"
same,% increase in motor activity,CB1 receptor [1],"142%, P < 0.03"
same,% Inhibition of THC-Induced food intake,CB1 receptor [2],"≥100%, P < 0.001"
"CC(=O)[C@H]1CCC2C3CC=C4CC(N=[N+]=[N-])CC[C@]4(C)C3CC[C@@]21C (some centres unmarked) [Compound 72, 3-Azidopregnenolone]",metabolism in downstream active steroids (Reduced metabolism / Metabolized),CHO cells,Reduced metabolism
same,inhibition in vivo at 6 mg/kg,TNF-α,61%
same,% Inhibition temperature decrease,CB1 receptor [1],"34%, P < 0.05"
same,% increase in motor activity,CB1 receptor [1],"145%, P < 0.05"
same,% Inhibition of THC-Induced food intake,CB1 receptor [2],"≥100%, P < 0.001"
"CC(=O)[C@H]1CCC2C3CC[C@@H]4C[C@@H](O)CC[C@]4(C)C3CC[C@@]21C (stereo partly drawn) [Compound 77, 5β-Pregnan-3β-ol-20-one (Epipregnanolone)]",metabolism in downstream active steroids (Reduced metabolism / Metabolized),CHO cells,Reduced metabolism
same,inhibition in vivo at 6 mg/kg,TNF-α,76%
same,% Inhibition temperature decrease,CB1 receptor [1],"70%, P < 0.0001"
same,% increase in motor activity,CB1 receptor [1],"177%, P < 0.02"
same,% Inhibition of THC-Induced food intake,CB1 receptor [2],"≥100%, P < 0.01"
